Structures can show the parent of a compound that is named as a salt.

This test deals with hNAAA (Homo sapiens (Human), UniProt Q02083). Nature of the test: NAAA fluorescence-based inhibition assay with PAMCA substrate. Format: biochemical. To be noted: purified activated hNAAA, PAMCA 5 μM, pH 4.5, 37° C. From the text: In order to have an assay method more conducive to high-throughput screening than those published for measuring the NAE hydrolyzing activity of NAAA [Proc. Natl. Acad. Sci. USA. 2009; 106(49):20966-71], the fluorogenic PEA analog N-(4-methyl coumarin)palmitamide (PAMCA), which is hydrolyzed to fluorescent 7-amino-4-methyl coumarin (AMC) and palmitic acid, was developed. [J. Proteome Res. 2012; 11(2):972-981], [PloS One. 2012; 7: e43877]. For three point concentration inhibition assays with hNAAA the following procedure was used. Purified activated NAAA (final concentration of 0.25 μg/mL) was incubated in assay buffer (100 mM citrate-phosphate buffer, pH 4.5, 3 mM DTT, 0.1% Triton X-100, 0.05% BSA, and 150 mM NaCl) made up to a total volume of 180 μL, followed by addition of the compound dissolved in 10 μL DMSO (along with DMSO neat for the control sample) with the final concentrations for each compound of 100, 10, and 1 μM, in triplicate on a 96 well plate. These samples were allowed to incubate for 15 min at room temperature and then 10 μL of a PAMCA stock solution in DMSO (final PAMCA concentration [5 μM]) was added. After 5 minutes of agitation on a shaking plate, the reaction was allowed to proceed at 37° C. for 120 minutes, with fluorescence readings taken every 10 minutes at a wavelength of 460 nm (using an excitation wavelength of 360 nm) on a Synergy HT Plate Reader using Gen5 software from Bio-Tek. The enzyme activity was calculated by converting the relative fluorescence units to AMC formed, using a standard curve of AMC.
hNAAA, sequence (Q02083 29-125): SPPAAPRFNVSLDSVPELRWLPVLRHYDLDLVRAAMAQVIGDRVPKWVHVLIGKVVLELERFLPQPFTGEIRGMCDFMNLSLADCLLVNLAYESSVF
hNAAA, sequence (Q02083 126-359): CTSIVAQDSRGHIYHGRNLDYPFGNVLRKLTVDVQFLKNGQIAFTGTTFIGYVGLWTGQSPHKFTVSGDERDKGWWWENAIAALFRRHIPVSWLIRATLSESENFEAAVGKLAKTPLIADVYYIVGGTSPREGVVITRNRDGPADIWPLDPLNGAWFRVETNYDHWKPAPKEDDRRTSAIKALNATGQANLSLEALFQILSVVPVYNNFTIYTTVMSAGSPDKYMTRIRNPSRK
For compounds that inhibit hNAAA in range IC50<1 μM, full inhibition curves using eight different concentrations of inhibitor (8 point assay) were generated. The assay procedure used was the same as the three point assay. For ostensibly covalent compounds (as observed by a significant decrease in the slope of a plot of fluorescence vs. time in three point screen), samples were allowed to incubate for 2 hours at 37° C., instead of 15 minutes, before addition of 10 μL of a PAMCA stock solution in DMSO for a final PAMCA concentration of 5 μM. After 5 minutes of agitation on a shaking plate, the reaction was allowed to proceed at 37° C. for 120 minutes. Inhibition constants were calculated using pro Fit software (Quantum Soft, Uetikon am See, Switzerland) and a Levenberg-Marquardt algorithm.
`COc1ccc(N2CCC(C(=O)N[C@H]3C[C@@H](N=C=S)C3)CC2)cc1` [Example 17, N-((1r, 3 r)-3-Isothiocyanatocyclobutyl)-1-(4-methoxyphenyl)piperidine-4-carboxamide]: the concentration for half-maximal inhibition (IC50) is 110 to 1000 nM.
Take `COc1ccc(-c2ccc(C(=O)N[C@H]3C[C@@H](N=C=S)C3)nc2)cc1` [Example 18, N-((1s, 3 s)-3-Isothiocyanatocyclobutyl)-5-(4-methoxyphenyl)picolinamide]: the IC50 fell in the range of 10 to 100 nM.
Regarding `COc1ccc(-c2ccc(C(=O)N[C@H]3C[C@@H](N=C=S)C3)nc2)cc1F` [Example 19, 5-(3-Fluoro-4-methoxyphenyl)-N-((1r, 3r)-3-isothiocyanatocyclobutyl) picolinamide], the IC50 fell in the range of 10 to 100 nM.
With `COc1cccc(-c2ccc(C(=O)N[C@H]3C[C@@H](N=C=S)C3)nc2)c1` [Example 20, N-((1r, 3r)-3-Isothiocyanatocyclobutyl)-5-(3-methoxyphenyl)picolinamide], the IC50 was in the range of 110 to 1000 nM.
Turning to `COc1ccc(-c2cnc(C(=O)N[C@H]3C[C@@H](N=C=S)C3)cn2)cc1` [Example 22, N-((1r, 3r)-3-Isothiocyanatocyclobutyl)-5-(4-methoxyphenyl)pyrazine-2-carboxamide], the IC50 is 110 to 1000 nM.
For `N#Cc1ccc(-c2ccc(C(=O)N[C@H]3C[C@@H](N=C=S)C3)nc2)cc1` [Example 23, 5-(4-cyanophenyl)-N-((1r, 3r)-3-Isothiocyanatocyclobutyl)picolinamide] the value was 110 to 1000 nM.
Next, `COc1ccc(Nc2ccc(C(=O)N[C@H]3C[C@@H](N=C=S)C3)nc2)cc1` [Example 24, N-((1r, 3r)-3-Isothiocyanatocyclobutyl)-5-((4-methoxyphenyl)amino) picolinamide]: above 1000 nM.
For `COc1ccc(-c2ccc(S(=O)(=O)N[C@H]3C[C@@H](N=C=S)C3)cc2)cc1` [Example 25, N-((1r, 3r)-3-Isothiocyanatocyclobutyl)-4′-methoxy-[1,1′-biphenyl]-4-sulfonamide], the IC50 is 10 to 100 nM.
As to `COc1ccc(-c2ccc(S(=O)(=O)N[C@H]3C[C@@H](N=C=S)C3)nc2)cc1` [Example 26, N-((1s, 3s)-3-Isothiocyanatocyclobutyl)-5-(4-methoxyphenyl)pyridine-2-sulfonamide], the IC50 is 10 to 100 nM.
Next, `COc1ccc(-c2ccc(S(=O)(=O)O[C@H]3C[C@@H](N=C=S)C3)cc2)cc1` [Example 27, (1s, 3 s)-3-Isothiocyanatocyclobutyl 4′-methoxy-[1,1′-biphenyl]-4-sulfonate]: 10 to 100 nM; `COc1ccc(-c2ccc(C(=O)O[C@H]3C[C@@H](N=C=S)C3)c(F)c2)cc1F` [Example 28, (1s,3s)-3-isothiocyanatocyclobutyl 3,3′-difluoro-4′-methoxy-[1,1′-biphenyl]-4-carboxylate]: 10 to 100 nM.
Next, `COc1ccc(-c2ccc(C(=O)N[C@H]3C[C@@H](N=C=S)C3)c(F)c2)cc1F` [Example 29, 3,3′-Difluoro-N-((1s,3s)-3-isothiocyanatocyclobutyl)-4′-methoxy-[1,1′-biphenyl]-4-carboxamide]: 10 to 100 nM; `COc1ccc(-c2ccc(S(=O)(=O)N[C@H]3C[C@@H](N=C=S)C3)cc2)cc1F` [Example 30, 3′-Fluoro-N-((1s,3s)-3-isothiocyanatocyclobutyl)-4′-methoxy-[1,1′-biphenyl]-4-sulfonamide]: 10 to 100 nM; `COc1ccc(-c2ccc(S(=O)(=O)O[C@H]3C[C@@H](N=C=S)C3)cc2)cc1F` [Example 31, (1s,3s)-3-Isothiocyanatocyclobutyl 3′-fluoro-4′-methoxy-[1,1′-biphenyl]-4-sulfonate]: 10 to 100 nM.
For the compound `O=C(CCCCCc1ccccc1)N[C@H]1C[C@@H](N=C=S)C1` [Example 32, N-(1s,3s)-(3-Isothiocyanatocyclobutyl)-6-phenylhexanamide], the IC50 lay in the range of 10 to 100 nM.
Next, `COc1ccc(-c2ccc(OC(=O)N[C@H]3C[C@@H](N=C=S)C3)cc2)cc1` [Example 33, 4′-Methoxy-[1,1′-biphenyl]-4-yl ((1s,3s)-3-isothiocyanatocyclobutyl)carbamate]: 10 to 100 nM; `COc1ccc(-c2ccc(C(=O)N[C@H]3C[C@@H](N=C=S)C3)nc2)nc1` [Example 34, N-(cis-(3-Isothiocyanatocyclobutyl))-5-methoxy-[2,3′-bipyridine]-6′-carboxamide]: 10 to 100 nM; `COc1ccc(-c2ncc(C(=O)N[C@H]3C[C@@H](N=C=S)C3)o2)cc1` [Example 35, N-((cis)-3-isothiocyanatocyclobutyl)-2-(4-methoxyphenyl)oxazole-5-carboxamide]: 110 to 1000 nM.
For `COc1ccc(N2CC(C(=O)N[C@H]3C[C@@H](N=C=S)C3)C2)cc1` [Example 36, N-((1s,3s)-3-Isothiocyanatocyclobutyl)-1-(4-methoxyphenyl)azetidine-3-carboxamide] the value was 110 to 1000 nM; for `COc1ccc(C23CC(C(=O)N[C@H]4C[C@@H](N=C=S)C4)(C2)C3)cc1` [Example 37, N-((1s,3s)-3-isothiocyanatocyclobutyl)-3-(4-methoxyphenyl)bicyclo[1.1.1]pentane-1-carboxamide], 110 to 1000 nM; for `COc1ccc(-c2cnc(C(=O)N[C@H]3C[C@@H](N=C=S)C3)c(N3CCC3)c2)cc1` [Example 38, 3-(Azetidin-1-yl)-N-((1s,3s)-3-isothiocyanatocyclobutyl)-5-(4-methoxyphenyl)picolinamide], 110 to 1000 nM.
`COc1ccc(-c2ccc(C(C)O[C@H]3C[C@@H](N=C=S)C3)nc2)cc1` (stereo partly drawn) [Example 39, 2-(1-((1s,3s)-3-Isothiocyanatocyclobutoxy)ethyl)-5-(4-methoxyphenyl)pyridine]: the IC50 fell in the range of 10 to 100 nM.
Take `COc1ccc(-c2ccc(C(C)O[C@H]3C[C@@H](N=C=S)C3)nc2)cc1F` (stereo partly drawn) [Example 40, 5-(3-Fluoro-4-methoxyphenyl)-2-(1-((1s,3s)-3-isothiocyanatocyclobutoxy)ethyl)pyridine]: the IC50 fell in the range of 110 to 1000 nM.
Next, `COc1ccc([C@H]2C[C@@H](C(=O)N[C@H]3C[C@@H](N=C=S)C3)C2)cc1` [Example 41, (1s,3S)—N-((1s,3S)-3-Isothiocyanatocyclobutyl)-3-(4-methoxyphenyl) cyclobutane-1-carboxamide]: 10 to 100 nM; `COc1ccc(-c2ccc(CO[C@H]3C[C@@H](N=C=S)C3)nc2)nc1` [Example 42, 6′-(((1s,3s)-3-Isothiocyanatocyclobutoxy)methyl)-5-methoxy-2,3′-bipyridine succinate]: 10 to 100 nM; `COc1ccc(-c2ccc(CO[C@H]3C[C@@H](N=C=S)C3)nc2)cc1F` [Example 43, 5-(3-Fluoro-4-methoxyphenyl)-2-(((1s,3s)-3-isothiocyanatocyclobutoxy)methyl)pyridine citrate]: 10 to 100 nM.
Take “(1r, 3r)-3-Isothiocyanatocyclobutyl 5-(4-methoxyphenyl)picolinate [Example 21]”: the IC50 was in the range of 10 to 100 nM.

One may read the IC50 as the point on the concentration scale where inhibition reaches its midpoint.

For the origin of these results see patent publication US10689357B2, “N-acylethanolamine hydrolyzing acid amidase (NAAA) inhibitors and use thereof” (Northeastern University, priority 2018, dated 2020).
